Results: the kinase profiling compilation of Christmann-Franck et al. (2016)

How the values were obtained:
Test in all cases: radiometric filter-binding kinase assay, Kinase HotSpot
Conditions in all cases: compound 0.5 µM; ATP 10 µM
TEC (human) = TEC (human) (UniProt P42680)
ROCK2 (human) = ROCK2 (human) (UniProt O75116)
MAP3K8 (human) = MAP3K8 (human) (UniProt P41279)
MAP3K3 (human) = MAP3K3 (human) (UniProt Q99759)
ACVR1B (human) = ACVR1B (human) (UniProt P36896)
PAK6 (human) = PAK6 (human) (UniProt Q9NQU5)
PLK2 (human) = PLK2 (human) (UniProt Q9NYY3)
FGFR1 (human) = FGFR1 (human) (UniProt P11362)
TNK2 (human) = TNK2 (human) (UniProt Q07912)
MAPK13 (human) = MAPK13 (human) (UniProt O15264)
DMPK (human) = DMPK (human) (UniProt Q09013)
PRKCD (human) = PRKCD (human) (UniProt Q05655)
CLK1 (human) = CLK1 (human) (UniProt P49759)
FER (human) = FER (human) (UniProt P16591)
PHKG2 (human) = PHKG2 (human) (UniProt P15735)
MINK1 (human) = MINK1 (human) (UniProt Q8N4C8)
FLT1 (human) = FLT1 (human) (UniProt P17948)
KIT (human) = KIT (human) (UniProt P10721)
AKT2 (human) = AKT2 (human) (UniProt P31751)
DAPK3 (human) = DAPK3 (human) (UniProt O43293)
CDK2 CCNA2 (human) = CDK2 CCNA2 (human) (UniProt P24941+P20248)
[1] = molecular target: TYK2 JH1 catalytic (human) (UniProt P29597)
PIM2 (human) = PIM2 (human) (UniProt Q9P1W9)
CSF1R (human) = CSF1R (human) (UniProt P07333)
AURKC (human) = AURKC (human) (UniProt Q9UQB9)
ZAP70 (human) = ZAP70 (human) (UniProt P43403)
CSNK1G1 (human) = CSNK1G1 (human) (UniProt Q9HCP0)
TEK (human) = TEK (human) (UniProt Q02763)
MUSK (human) = MUSK (human) (UniProt O15146)
LCK (human) = LCK (human) (UniProt P06239)
PDGFRB (human) = PDGFRB (human) (UniProt P09619)
GRK5 (human) = GRK5 (human) (UniProt P34947)
TYRO3 (human) = TYRO3 (human) (UniProt Q06418)
NEK3 (human) = NEK3 (human) (UniProt P51956)
CDK6 CCND1 (human) = CDK6 CCND1 (human) (UniProt Q00534+P24385)
EPHA4 (human) = EPHA4 (human) (UniProt P54764)
STK25 (human) = STK25 (human) (UniProt O00506)
MAPK3 (human) = MAPK3 (human) (UniProt P27361)
ERBB4 (human) = ERBB4 (human) (UniProt Q15303)
CDK7 CCNH MNAT1 (human) = CDK7 CCNH MNAT1 (human) (UniProt P50613+P51948+P51946)
CDK5 CDK5R1 p35 (human) = CDK5 CDK5R1 p35 (human) (UniProt Q00535+Q15078)
ROS1 (human) = ROS1 (human) (UniProt P08922)

Sequence of TNK2 (human) (Q07912 whole entry, looked up): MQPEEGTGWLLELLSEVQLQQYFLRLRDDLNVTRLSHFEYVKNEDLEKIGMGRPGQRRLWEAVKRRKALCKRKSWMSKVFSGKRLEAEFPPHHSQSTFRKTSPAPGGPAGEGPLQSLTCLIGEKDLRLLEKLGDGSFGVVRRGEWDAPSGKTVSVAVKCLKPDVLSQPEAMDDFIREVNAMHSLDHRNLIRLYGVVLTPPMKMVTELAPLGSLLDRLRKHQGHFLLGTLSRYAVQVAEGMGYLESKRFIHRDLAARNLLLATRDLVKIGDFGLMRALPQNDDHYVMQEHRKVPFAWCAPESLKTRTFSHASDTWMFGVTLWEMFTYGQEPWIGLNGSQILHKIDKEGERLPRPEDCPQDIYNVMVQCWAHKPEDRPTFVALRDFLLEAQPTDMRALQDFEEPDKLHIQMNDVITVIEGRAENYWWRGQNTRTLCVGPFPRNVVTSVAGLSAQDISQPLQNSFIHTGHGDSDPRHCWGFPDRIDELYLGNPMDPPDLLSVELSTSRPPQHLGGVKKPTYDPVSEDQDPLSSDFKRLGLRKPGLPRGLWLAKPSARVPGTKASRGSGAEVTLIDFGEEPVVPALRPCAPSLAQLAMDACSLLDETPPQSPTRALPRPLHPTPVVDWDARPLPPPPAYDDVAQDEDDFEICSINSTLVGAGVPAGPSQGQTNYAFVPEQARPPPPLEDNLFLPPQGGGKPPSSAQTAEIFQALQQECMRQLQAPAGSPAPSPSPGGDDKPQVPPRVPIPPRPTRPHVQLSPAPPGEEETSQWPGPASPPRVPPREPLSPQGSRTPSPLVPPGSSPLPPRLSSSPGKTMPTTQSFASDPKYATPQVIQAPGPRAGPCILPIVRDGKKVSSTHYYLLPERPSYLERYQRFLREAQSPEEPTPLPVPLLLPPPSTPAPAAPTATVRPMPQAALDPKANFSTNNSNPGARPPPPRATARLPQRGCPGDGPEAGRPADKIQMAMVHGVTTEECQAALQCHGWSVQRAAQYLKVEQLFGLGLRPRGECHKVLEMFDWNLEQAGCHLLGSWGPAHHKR
Sequence of MAPK13 (human) (O15264 whole entry, looked up): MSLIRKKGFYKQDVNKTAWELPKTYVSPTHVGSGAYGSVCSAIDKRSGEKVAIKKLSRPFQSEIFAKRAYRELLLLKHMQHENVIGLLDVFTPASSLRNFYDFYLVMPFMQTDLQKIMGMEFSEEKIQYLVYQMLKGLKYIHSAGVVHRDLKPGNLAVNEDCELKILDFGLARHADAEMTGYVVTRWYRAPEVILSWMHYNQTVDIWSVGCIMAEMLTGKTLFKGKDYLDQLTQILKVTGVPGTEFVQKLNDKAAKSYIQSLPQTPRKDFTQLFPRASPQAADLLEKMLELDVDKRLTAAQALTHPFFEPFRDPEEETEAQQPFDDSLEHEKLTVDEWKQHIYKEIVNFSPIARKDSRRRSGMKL
Sequence of FER (human) (P16591 whole entry, looked up): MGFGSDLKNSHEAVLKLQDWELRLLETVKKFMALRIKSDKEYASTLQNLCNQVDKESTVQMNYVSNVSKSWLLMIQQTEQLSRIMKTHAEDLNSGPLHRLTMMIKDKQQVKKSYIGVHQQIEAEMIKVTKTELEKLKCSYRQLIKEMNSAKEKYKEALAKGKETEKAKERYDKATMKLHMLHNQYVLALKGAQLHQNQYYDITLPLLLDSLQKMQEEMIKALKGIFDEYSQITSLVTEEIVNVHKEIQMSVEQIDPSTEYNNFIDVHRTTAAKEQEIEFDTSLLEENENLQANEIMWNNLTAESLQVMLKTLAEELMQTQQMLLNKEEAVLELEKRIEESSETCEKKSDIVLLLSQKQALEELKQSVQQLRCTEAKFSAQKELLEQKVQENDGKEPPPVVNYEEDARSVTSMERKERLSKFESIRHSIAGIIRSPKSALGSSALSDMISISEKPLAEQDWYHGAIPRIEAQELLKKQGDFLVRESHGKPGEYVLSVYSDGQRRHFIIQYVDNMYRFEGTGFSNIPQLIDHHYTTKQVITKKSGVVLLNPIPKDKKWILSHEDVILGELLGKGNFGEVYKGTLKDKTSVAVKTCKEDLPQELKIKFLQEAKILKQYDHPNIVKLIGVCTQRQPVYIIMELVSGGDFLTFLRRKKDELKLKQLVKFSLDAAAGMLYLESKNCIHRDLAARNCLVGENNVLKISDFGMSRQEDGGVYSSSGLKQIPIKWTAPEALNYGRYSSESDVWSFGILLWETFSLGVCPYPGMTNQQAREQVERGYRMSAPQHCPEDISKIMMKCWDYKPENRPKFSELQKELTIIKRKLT
Sequence of AURKC (human) (Q9UQB9 whole entry, looked up): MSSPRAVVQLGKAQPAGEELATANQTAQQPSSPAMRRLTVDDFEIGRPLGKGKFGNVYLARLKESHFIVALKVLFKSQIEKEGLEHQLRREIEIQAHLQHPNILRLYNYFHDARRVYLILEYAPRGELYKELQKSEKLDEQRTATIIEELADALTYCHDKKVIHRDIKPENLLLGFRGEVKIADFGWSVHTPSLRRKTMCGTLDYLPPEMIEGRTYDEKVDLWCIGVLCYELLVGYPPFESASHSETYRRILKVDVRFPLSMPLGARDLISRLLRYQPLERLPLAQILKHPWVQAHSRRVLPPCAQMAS
Sequence of LCK (human) (P06239 whole entry, looked up): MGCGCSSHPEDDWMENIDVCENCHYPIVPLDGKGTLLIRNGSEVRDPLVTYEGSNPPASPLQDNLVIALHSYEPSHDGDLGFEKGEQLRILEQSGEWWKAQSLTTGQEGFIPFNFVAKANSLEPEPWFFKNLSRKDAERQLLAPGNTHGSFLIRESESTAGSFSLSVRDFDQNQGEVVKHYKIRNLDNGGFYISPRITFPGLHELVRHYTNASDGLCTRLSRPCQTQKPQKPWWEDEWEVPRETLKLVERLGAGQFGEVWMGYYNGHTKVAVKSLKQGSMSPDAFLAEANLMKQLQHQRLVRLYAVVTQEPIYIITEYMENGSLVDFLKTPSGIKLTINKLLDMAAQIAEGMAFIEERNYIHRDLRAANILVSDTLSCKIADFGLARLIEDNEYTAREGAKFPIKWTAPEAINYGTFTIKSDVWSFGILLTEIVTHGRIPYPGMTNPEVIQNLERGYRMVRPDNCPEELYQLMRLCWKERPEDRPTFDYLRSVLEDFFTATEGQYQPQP
Sequence of MAP3K8 (human) (P41279 whole entry, looked up): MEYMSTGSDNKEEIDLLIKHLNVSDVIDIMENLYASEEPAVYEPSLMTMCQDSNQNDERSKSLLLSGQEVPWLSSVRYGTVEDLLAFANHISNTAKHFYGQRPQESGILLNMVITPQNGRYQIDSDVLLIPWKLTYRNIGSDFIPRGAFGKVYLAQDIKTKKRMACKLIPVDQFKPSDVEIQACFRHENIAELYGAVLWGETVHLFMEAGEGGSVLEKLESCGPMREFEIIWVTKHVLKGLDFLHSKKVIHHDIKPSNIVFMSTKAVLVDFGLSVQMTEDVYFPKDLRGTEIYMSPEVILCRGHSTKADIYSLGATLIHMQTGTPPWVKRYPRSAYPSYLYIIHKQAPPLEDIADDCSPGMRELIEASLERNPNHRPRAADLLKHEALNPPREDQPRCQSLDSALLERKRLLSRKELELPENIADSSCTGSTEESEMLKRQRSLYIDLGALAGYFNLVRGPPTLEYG
Sequence of PIM2 (human) (Q9P1W9 whole entry, looked up): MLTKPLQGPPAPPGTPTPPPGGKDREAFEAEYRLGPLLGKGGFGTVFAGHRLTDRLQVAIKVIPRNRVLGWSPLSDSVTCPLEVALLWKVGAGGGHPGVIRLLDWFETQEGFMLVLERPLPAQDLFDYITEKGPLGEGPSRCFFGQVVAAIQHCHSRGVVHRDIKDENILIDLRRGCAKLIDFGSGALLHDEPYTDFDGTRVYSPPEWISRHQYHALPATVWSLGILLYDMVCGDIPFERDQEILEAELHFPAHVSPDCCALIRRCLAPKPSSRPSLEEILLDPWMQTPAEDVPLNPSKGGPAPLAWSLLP
Sequence of PRKCD (human) (Q05655 whole entry, looked up): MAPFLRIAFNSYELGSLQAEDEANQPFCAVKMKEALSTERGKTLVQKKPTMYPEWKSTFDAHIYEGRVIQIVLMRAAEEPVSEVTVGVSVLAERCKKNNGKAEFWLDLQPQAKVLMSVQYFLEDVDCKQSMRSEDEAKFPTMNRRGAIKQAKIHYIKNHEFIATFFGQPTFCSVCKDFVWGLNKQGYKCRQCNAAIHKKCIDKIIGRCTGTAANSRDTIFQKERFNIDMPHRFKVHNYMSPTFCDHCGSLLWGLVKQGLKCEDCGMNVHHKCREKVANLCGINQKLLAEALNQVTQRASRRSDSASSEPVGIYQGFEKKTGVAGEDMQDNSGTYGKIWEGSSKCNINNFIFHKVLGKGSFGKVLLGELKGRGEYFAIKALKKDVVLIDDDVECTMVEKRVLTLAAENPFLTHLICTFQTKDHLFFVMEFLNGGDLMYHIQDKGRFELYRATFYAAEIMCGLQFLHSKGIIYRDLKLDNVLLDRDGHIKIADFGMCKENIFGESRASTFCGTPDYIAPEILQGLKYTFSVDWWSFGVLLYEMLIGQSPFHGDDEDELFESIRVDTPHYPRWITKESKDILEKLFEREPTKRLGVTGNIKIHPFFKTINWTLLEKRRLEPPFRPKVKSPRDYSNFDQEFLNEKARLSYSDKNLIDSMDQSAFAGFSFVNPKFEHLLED
Sequence of CDK2 CCNA2 (human) (P20248 whole entry, looked up, other chains not shown): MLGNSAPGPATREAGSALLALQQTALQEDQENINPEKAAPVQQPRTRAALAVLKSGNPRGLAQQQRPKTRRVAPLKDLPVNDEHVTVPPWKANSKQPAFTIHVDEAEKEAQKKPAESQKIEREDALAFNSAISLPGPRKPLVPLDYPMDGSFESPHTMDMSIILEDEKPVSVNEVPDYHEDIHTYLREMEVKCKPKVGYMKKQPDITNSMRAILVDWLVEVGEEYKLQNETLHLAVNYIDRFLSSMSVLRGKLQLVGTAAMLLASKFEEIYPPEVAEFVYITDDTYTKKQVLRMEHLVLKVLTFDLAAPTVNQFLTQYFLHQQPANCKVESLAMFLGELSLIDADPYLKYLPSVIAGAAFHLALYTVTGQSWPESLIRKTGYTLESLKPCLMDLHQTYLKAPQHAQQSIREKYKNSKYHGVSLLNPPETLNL

COc1ccc(OC)c2c(=S)c3ccccc3[nH]c12
residual activity (TEC (human)): 147%
residual activity (ROCK2 (human)): 90.4%
residual activity (MAP3K8 (human)): 111%
residual activity (MAP3K3 (human)): 117%
residual activity (ACVR1B (human)): 108%
residual activity (PAK6 (human)): 112%
residual activity (PLK2 (human)): 97.6%
residual activity (FGFR1 (human)): 89.6%
residual activity (TNK2 (human)): 96.3%
residual activity (MAPK13 (human)): 103%
residual activity (DMPK (human)): 99.6%
residual activity (PRKCD (human)): 103%
residual activity (CLK1 (human)): 98.4%
residual activity (FER (human)): 84%
residual activity (PHKG2 (human)): 94.6%
residual activity (MINK1 (human)): 95.9%
residual activity (FLT1 (human)): 101%
residual activity (KIT (human)): 78.6%
residual activity (AKT2 (human)): 94.6%
residual activity (DAPK3 (human)): 112%
residual activity (CDK2 CCNA2 (human)): 88.6%
residual activity [1]: 108%
residual activity (PIM2 (human)): 103%
residual activity (CSF1R (human)): 93.4%
residual activity (AURKC (human)): 88.2%
residual activity (ZAP70 (human)): 100%
residual activity (CSNK1G1 (human)): 120%
residual activity (TEK (human)): 100%
residual activity (MUSK (human)): 87.3%
residual activity (LCK (human)): 94.7%
residual activity (PDGFRB (human)): 98.1%
residual activity (GRK5 (human)): 108%
residual activity (TYRO3 (human)): 97.1%
residual activity (NEK3 (human)): 107%
residual activity (CDK6 CCND1 (human)): 102%
residual activity (EPHA4 (human)): 88.8%
residual activity (STK25 (human)): 96.2%
residual activity (MAPK3 (human)): 103%
residual activity (ERBB4 (human)): 104%
residual activity (CDK7 CCNH MNAT1 (human)): 91.7%
residual activity (CDK5 CDK5R1 p35 (human)): 86.4%
residual activity (ROS1 (human)): 103%

COc1ccc(CNC(=O)Nc2ncc([N+](=O)[O-])s2)cc1
residual activity (TEC (human)): 97.7%
residual activity (ROCK2 (human)): 99.8%
residual activity (MAP3K8 (human)): 96.2%
residual activity (MAP3K3 (human)): 87.6%
residual activity (ACVR1B (human)): 102%
residual activity (PAK6 (human)): 106%
residual activity (PLK2 (human)): 104%
residual activity (FGFR1 (human)): 98.9%
residual activity (TNK2 (human)): 96.8%
residual activity (MAPK13 (human)): 91.1%
residual activity (DMPK (human)): 101%
residual activity (PRKCD (human)): 100%
residual activity (CLK1 (human)): 106%
residual activity (FER (human)): 101%
residual activity (PHKG2 (human)): 105%
residual activity (MINK1 (human)): 90.5%
residual activity (FLT1 (human)): 96.8%
residual activity (KIT (human)): 103%
residual activity (AKT2 (human)): 103%
residual activity (DAPK3 (human)): 106%
residual activity (CDK2 CCNA2 (human)): 93.3%
residual activity [1]: 108%
residual activity (PIM2 (human)): 94.5%
residual activity (CSF1R (human)): 99.2%
residual activity (AURKC (human)): 98.4%
residual activity (ZAP70 (human)): 102%
residual activity (CSNK1G1 (human)): 97.8%
residual activity (TEK (human)): 94%
residual activity (MUSK (human)): 115%
residual activity (LCK (human)): 101%
residual activity (PDGFRB (human)): 125%
residual activity (GRK5 (human)): 104%
residual activity (TYRO3 (human)): 100%
residual activity (NEK3 (human)): 78.6%
residual activity (CDK6 CCND1 (human)): 98.6%
residual activity (EPHA4 (human)): 101%
residual activity (STK25 (human)): 98.6%
residual activity (MAPK3 (human)): 103%
residual activity (ERBB4 (human)): 95.2%
residual activity (CDK7 CCNH MNAT1 (human)): 94.8%
residual activity (CDK5 CDK5R1 p35 (human)): 96.4%
residual activity (ROS1 (human)): 100%
